The target in the assay is mPTPB (Mycobacterium tuberculosis, UniProt I6WXK4). The note with it: read-out: IC50 for mPTPB; pH 7.

Data on one molecule can be found in paper PMC3117672 (ChemMedChem, 2010).

Chain of mPTPB (I6WXK4 whole entry, looked up): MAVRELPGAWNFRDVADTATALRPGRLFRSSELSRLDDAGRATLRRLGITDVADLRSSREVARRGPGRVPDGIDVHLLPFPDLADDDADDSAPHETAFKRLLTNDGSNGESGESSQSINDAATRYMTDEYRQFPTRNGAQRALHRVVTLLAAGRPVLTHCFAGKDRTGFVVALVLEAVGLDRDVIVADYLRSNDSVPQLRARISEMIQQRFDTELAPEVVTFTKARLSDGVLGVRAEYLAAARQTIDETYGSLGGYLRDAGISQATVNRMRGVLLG

As to `C#CCOc1c(C(=O)O)cc2cc(Cl)cc(OCC#C)c2c1Cl` [Compound L5], the IC50 (commonly the concentration needed to halve the response being measured) was found to be 75 µM.
